Values after ≈ are worked out from the molar mass of the structure shown.
Test: Water solubility of racecadotril
Assay type: physicochemical
Details: room temperature conditions

For `CC(=O)SCC(Cc1ccccc1)C(=O)NCC(=O)OCc1ccccc1` (racemic) [Racecadotril, (RS)-benzyl N-[3-(acetylthio)-2-benzylpropanoyl]glycinate], the solubility was about 10 µg/mL (≈ 25.9 µM).
